One series relates to M. tbc H37Rv. The note with it: cited from earlier work.
In series [1] the test system is Mycobacterium smegmatis CCM 4622 (ATCC 607). Nature of the series: Mycobacterium smegmatis screening, microdilution broth panel method with resazurin. In kind it is cell-based. Particulars: Middlebrook 7H9 broth, 48 h incubation; for MIC: Mycolicibacterium smegmatis, 48 h, read-out: Minimum Inhibitory Concentrations M. smegmatis.
A short description of series [2]: Experimental lipophilicity logk by RP-HPLC. The note with it: methanol 70% / water 30%, C18.
Method: These values were compared with logk, an experimentally measured lipophilicity parameter derived from retention times acquired by RP-HPLC.
Experimental lipophilicity parameter logk values were determined using HPLC method. […] The separation process was handled by Agilent ChemStation, version B.04.02 extended with spectral module (Agilent Technologies Inc.). A mixture of methanol (HPLC grade, 70%) and water (HPLC-Milli-Q Grade, 30%) was used as mobile phase. The total flow rate of the column was set to 1.0 mL/min, injection 20 μL, column temperature 30 °C. 210 nm as detection wavelength and 270 nm as monitor wavelength were chosen. A methanolic solution of KI was used for the determination of dead time (TD). Retention times (TR) of synthesized compounds were measured in minutes. Capacity factors k were calculated according to formula k = (TR − TD)/TD, where TR is the retention time of the solute and TD denotes the dead time obtained via an unretained analyte (KI). Logk, which was calculated from the capacity factor k, is used as the lipophilicity index.
Series [3] relates to Mycobacterium tuberculosis H37Rv. Nature of the series: Antimycobacterial screening, microdilution broth panel method with resazurin (Alamar blue). In kind it is cell-based. Particulars: for MIC: read-out: Minimum Inhibitory Concentrations M. tbc H37Rv. Background: Dilution methods test growth across graded concentrations, often in twofold steps.
The subject of series [4] is eight common bacterial strains. Nature of the series: Antibacterial screening, microdilution broth panel method. Type of series: cell-based. Particulars: all tested bacterial strains, pH 7.0; read-out: Minimum Inhibitory Concentrations Bacteria.
The nature of the next series: in vitro. Particulars: human, IC50 (cytotoxicity), HepG2, 24 h incubation.
The next series deals with HepG2 cell line. Particulars: read-out: IC50 (cytotoxicity); HepG2, 24 h incubation.
Series [5] deals with Enterococcus faecalis J 14365/08. Nature of the series: Antibacterial screening, microdilution broth panel method. Type of series: cell-based. The note with it: J14365/08; Enterococcus faecalis J 14365/08, pH 7.0; read-out: Minimum Inhibitory Concentrations Bacteria, EF.
A further series relates to M. kansasii My 235/80. Nature of the series: Antimycobacterial screening, microdilution broth panel method with resazurin (Alamar blue). In kind it is cell-based. The note with it: Mycobacterium kansasii, MY235/80; pH 5.6, 5–7 days incubation.
For series [6], the system named is Staphylococcus aureus CCM 4516/08. Kind of series: Antibacterial screening, microdilution broth panel method. In kind it is cell-based.
[7] abbreviates: Mycobacterium tuberculosis, H37RV, 336 h, pH 5.6, Sula's broth pH 5.6, 14 days incubation.
Where [8] appears, read: Mycobacterium tuberculosis, H37RV, 336 h, pH 5.6, Sula's broth pH 5.6, 14 days incubation, n.a. = not active.

Molecules are shown by their SMILES. ≈ marks a conversion by molar mass, not a printed value. Where “and” joins values, the source holds several entries; their conditions need not be identical. Identical values can stand only once. Like-named read-outs stand apart in the source and are kept apart here. Bounds are passed on as bounds.

Here are results for 29 compounds from paper PMC6155776, “Synthesis of Novel Pyrazinamide Derivatives Based on 3-Chloropyrazine-2-carboxamide and Their Antimicrobial Evaluation” (Molecules : A Journal of Synthetic Chemistry and Natural …, 2017).

A word on the IC50: it is the concentration at which inhibition is half-maximal.

Regarding `Cc1nc(C#N)c(C#N)nc1NCc1ccc(N)cc1` [Compound 9-C], in the series on M. tbc H37Rv (series C), the “MIC against M. tbc H37Rv” value is 25 µg/mL and 95 µM.

For the compound `NC(=O)c1nccnc1NCc1ccc(Cl)cc1` [Compound 5, 3-[(4-Chlorobenzyl)amino]pyrazine-2-carboxamide], the MIC is 250 µg/mL (≈ 952 µM) in series [1] and > 100 µg/mL in series [3] (setting [7]). In series [2], this compound returned a Logk of 0.373.

On to `Cc1ccc(CNc2nccnc2C(N)=O)cc1` [Compound 8, 3-[(4-Methylbenzyl)amino]pyrazine-2-carboxamide], for which the MIC in series [4] is > 500 µM; in series [1], ≥ 500 µg/mL; in series [3] (setting [8]), 6 to 42 µM; in [3] (setting [7]), 1.56 to 12.5 µg/mL; in series [3] (Sula's broth pH 5.6, 14 days incubation, n.a. = not active), 6 µM. Moreover, in series [2], the Logk came out at 0.441. The IC50 was ≥ 250 µM in the series “in vitro” and > 250 µM in the series on HepG2 cell line. Besides, the “Minimum Inhibitory Concentrations M. tbc H37Rv” value in series [3] (Sula's broth pH 5.6, 14 days incubation) amounted to 1.56 µg/mL.

With `COc1ccc(CNc2nccnc2C(N)=O)cc1` [Compound 7, 3-[(4-Methoxybenzyl)amino]pyrazine-2-carboxamide], the MIC in series [4] is > 500 µM; in series [1] it was ≥ 500 µg/mL; in series [3] (setting [7]) it was > 100 µg/mL. The compound also registered a Logk in series [2] of 0.194.

Take `NC(=O)c1nccnc1NCc1ccc(Cl)c(Cl)c1` [Compound 3, 3-[(3,4-Dichlorobenzyl)amino]pyrazine-2-carboxamide]: the MIC is > 500 µM in [4], ≥ 500 µg/mL in series [1] and > 100 µg/mL in series [3] (setting [7]). In series [2], the Logk amounted to 0.470.

Consider `Cc1nc(C#N)c(C#N)nc1NCc1cccc(C(F)(F)F)c1` [Compound 4-C], for which the “MIC against M. tbc H37Rv” value in the series on M. tbc H37Rv (series C) was 12.5 µg/mL and 39 µM.

As for `NC(=O)c1nccnc1NCc1ccc(C(F)(F)F)cc1` [Compound 12, 3-[(4-Trifluoromethylbenzyl)amino]pyrazine-2-carboxamide], the figures for the MIC in series [5] and in series [1] were 125 µM (≈ 37 µg/mL) and ≥ 500 µg/mL, respectively. Also, in [2], the Logk is 0.502. The compound further displayed an IC50 in the series “in vitro” of 57.3 µM.

Take `NNC(=O)c1ccncc1` [INH, isoniazid, reference compound]: the “Minimum Inhibitory Concentrations M. smegmatis” value in [1] is 7.81 to 15.63 µg/mL; in series [1] (listed as isoniazid), 15.63 µg/mL. The MIC with M. kansasii My 235/80 is 1.56 µg/mL to 12.5 µg/mL and 11 µM to 91 µM; in [3] (setting [8]) it was 3 µM; in [3] (setting [7]) it was 0.39 µg/mL.

With `Cc1nc(C#N)c(C#N)nc1NCc1ccccc1` [Compound 1-C], the “MIC against M. tbc H37Rv” value with M. tbc H37Rv (series C) was 25 µg/mL and 100 µM.

For `NC(=O)c1nccnc1NCc1cccc([N+](=O)[O-])c1` [Compound 15, 3-[(3-Nitrobenzyl)amino]pyrazine-2-carboxamide], the MIC in series [4] is > 500 µM; in [1], ≥ 500 µg/mL; in [3] (setting [7]), > 100 µg/mL. The compound also returned a Logk in series [2] of 0.101.

As for `Cc1ccc(CNc2nc(C#N)cnc2C#N)cc1` [Compound 8-B], the “MIC against M. tbc H37Rv” value with M. tbc H37Rv (series A and B) was 6.25 µg/mL and 25 µM.

Consider `N#Cc1cnc(C#N)c(NCc2ccc(N)cc2)n1` [Compound 9-B], for which, in the series on M. tbc H37Rv (series A and B), the “MIC against M. tbc H37Rv” value was 25 µg/mL and 100 µM.

For `NC(=O)c1nccnc1NCc1ccc(N)cc1` [Compound 9, 3-[(4-Aminobenzyl)amino]pyrazine-2-carboxamide], the MIC in series [4] is > 500 µM; in series [1], 250 µg/mL (≈ 1030 µM). Besides, the Logk in series [2] is reported as −0.313. In the series “in vitro”, the IC50 is > 750 µM.

For the compound `NC(=O)c1nccnc1NCc1cccc(C(F)(F)F)c1` [Compound 4, 3-[(3-Trifluoromethylbenzyl)amino]pyrazine-2-carboxamide], the MIC in [1] was 250 µg/mL (≈ 844 µM); against M. kansasii My 235/80, 25 µg/mL and 84 µM; in series [6] (Staphylococcus aureus, CCM4516, pH 7, Staphylococcus aureus CCM 4516/08, pH 7.0, read-out: Minimum Inhibitory Concentrations Bacteria, SA), 31.2 µM (≈ 9.26 µg/mL). In [2], this compound registered a Logk of 0.403. Moreover, in “in vitro”, inhibition was half-maximal at 76.5 µM (IC50). For the same compound, in series [6] (Staphylococcus aureus CCM 4516/08, pH 7.0), the “Minimum Inhibitory Concentrations Bacteria, SA” value is recorded as 31.25 SA ^a µM.

As to `N#Cc1cnc(C(N)=O)c(NCc2cccc(C(F)(F)F)c2)n1` [Compound 4-A], in the series on M. tbc H37Rv (series A and B), the “MIC against M. tbc H37Rv” value is 25 µg/mL and 78 µM.

For the compound `NC(=O)c1nccnc1NCc1ccccc1Cl` [Compound 10, 3-[(2-Chlorobenzyl)amino]pyrazine-2-carboxamide], the values for the MIC in [4], in series [1] and in [3] (setting [7]) were > 500 µM, ≥ 500 µg/mL and > 100 µg/mL, respectively. In series [2], this compound displayed a Logk of 0.441.

Consider `NC(=O)c1cnccn1` [PZA, pyrazinamide], for which the MIC in series [1] is ≥ 500 µg/mL; in series [3] (setting [8]) it was 102 µM; in series [3] (setting [7]), 12.5 µg/mL.

Regarding `NC(=O)c1nccnc1NCc1ccccc1` [Compound 1, 3-(Benzylamino)pyrazine-2-carboxamide], the MIC was > 500 µM in series [4], ≥ 500 µg/mL in series [1] and ≥ 100 µg/mL in series [3] (setting [7]). In [2], this compound displayed a Logk of 0.215.

Consider `Cc1ccccc1CNc1nccnc1C(N)=O` [Compound 6, 3-[(2-Methylbenzyl)amino]pyrazine-2-carboxamide], for which the values for the MIC in series [4], in series [1] and in series [3] (setting [7]) were > 500 µM, ≥ 500 µg/mL and > 100 µg/mL, respectively. In series [2], this compound displayed a Logk of 0.320.

For `NC(=O)c1nccnc1NCc1ccccc1F` [Compound 11, 3-[(2-Fluorobenzyl)amino]pyrazine-2-carboxamide], the results for the MIC in [5], in series [1] and in series [3] (setting [7]) were 125 µM (≈ 30.8 µg/mL), ≥ 500 µg/mL and > 100 µg/mL, respectively. The compound also returned a Logk in series [2] of 0.248.

Regarding `O=C(O)c1cn(C2CC2)c2cc(N3CCNCC3)c(F)cc2c1=O` [CPX, ciprofloxacin, reference compound], in [1], the “Minimum Inhibitory Concentrations M. smegmatis” value lay in the range of 0.10 to 0.20 µg/mL and the MIC came to 0.1 µg/mL (≈ 0.302 µM).

Turning to `N#Cc1cnc(C(N)=O)c(NCc2ccc(N)cc2)n1` [Compound 9-A], in the series with M. tbc H37Rv (series A and B), the “MIC against M. tbc H37Rv” value was 12.5 µg/mL and 47 µM.

Consider `NC(=O)c1nccnc1NCc1cccc(Cl)c1` [Compound 2, 3-[(3-Chlorobenzyl)amino]pyrazine-2-carboxamide], for which the results for the MIC in [4], in [1] and in [3] (setting [7]) were > 500 µM, ≥ 500 µg/mL and > 100 µg/mL, respectively. For the same compound, the Logk in series [2] came out at 0.373.

In the case of `Cc1ccc(CNc2nc(C#N)c(C#N)nc2C)cc1` [Compound 8-C], the “MIC against M. tbc H37Rv” value in the series on M. tbc H37Rv (series C) is 25 µg/mL and 95 µM.

For `Cc1ccc(CNc2nc(C#N)cnc2C(N)=O)cc1` [Compound 8-A], the “MIC against M. tbc H37Rv” value with M. tbc H37Rv (series A and B) is 12.5 µg/mL and 47 µM.

In the case of `N#Cc1cnc(C#N)c(NCc2ccccc2)n1` [Compound 1-B], the “MIC against M. tbc H37Rv” value in the series with M. tbc H37Rv (series A and B) was 12.5 µg/mL (≈ 53.1 µM).

As for `NC(=O)c1nccnc1NCc1ccccc1C(F)(F)F` [Compound 13, 3-[(2-Trifluoromethylbenzyl)amino]pyrazine-2-carboxamide], the MIC in series [5] is 125 µM (≈ 37 µg/mL); in series [1], ≥ 500 µg/mL; in series [3] (setting [7]) it was > 100 µg/mL. Besides, the Logk in series [2] is given as 0.495.

`COc1ccc(CNc2nccnc2C(N)=O)c(OC)c1` [Compound 14, 3-[(2,4-Dimethoxybenzyl)amino]pyrazine-2-carboxamide]: the values for the MIC in series [5], in series [1] and in series [3] (setting [7]) were 62.5 µM (≈ 18 µg/mL), ≥ 500 µg/mL and > 100 µg/mL, respectively. In [2], the Logk is reported as 0.274.

Consider `CO[C@H]1/C=C/O[C@@]2(C)Oc3c(C)c(O)c4c(O)c(c(/C=N/N5CCN(C)CC5)c(O)c4c3C2=O)NC(=O)/C(C)=C\C=C\[C@H](C)[C@H](O)[C@@H](C)[C@@H](O)[C@@H](C)[C@H](OC(C)=O)[C@@H]1C` [RFM, rifampicin, reference compound], for which, in [1], the “Minimum Inhibitory Concentrations M. smegmatis” value was 0.78 to 1.56 µg/mL and the MIC worked out at 0.39 µg/mL (≈ 0.474 µM).
